These are literature values, as cited in paper PMC11047177 (ESMO Open, 2024).

Where two headings read alike, the source gives them in different places.

For series [1] the following is noted: cited from earlier work.
For series [2] the following is noted: cited from earlier work. The source holds these as a separate data set.
Setting [3] is: patients with advanced solid tumors.
Setting [4] is: advanced solid tumors, non-Hodgkin's lymphoma, or lower-risk myelodysplastic syndrome.

For the compound `CC(=O)N1CCC(Nc2cc(C(=O)NC[C@H](O)CN3CCc4ccccc4C3)ncn2)CC1` [GSK3326595], the “Preliminary evidence of antitumor activity” value in series [1] is “patients achieving PRs”. Besides, in series [1] (setting [3]), the TRAE Anemia is 31%, the TRAE Dysgeusia is reported as 26%, the TRAE Fatigue is 39% and the TRAE Nausea is reported as 31%.
For the compound `Nc1nc2cc(CC[C@H]3C[C@@H](n4ccc5c(N)ncnc54)[C@H](O)[C@@H]3O)ccc2cc1Br` [JNJ-64619178], in series [2] (setting [4]), the TRAE Fatigue was 32%, the TRAE Nausea is given as 39% and the TRAE thrombocytopenia is reported as 52%. Also, in series [2], the “Preliminary evidence of antitumor activity” value was “patients achieving PRs”.
